Read-outs that look alike come from different tables or passages of the source. Blank lines part the entries; values can stand above or below the compound they belong to.
How the values were obtained:
[1] = MSCR test, percentage elastic recovery; format: physicochemical; details: bitumen 20/30 + 5% compound
[2] = bitumen 20/30 + 5% compound
[3] = Softening point ring & ball of rejuvenated bitumen; details: bitumen 20/30 rejuvenated with 5% of the compound, 180° C., 30 minutes
[4] = labelling of the product itself; — = none; cited from earlier work
[5] = Softening point of rejuvenated aged bitumen; format: physicochemical; details: aged bitumen 50/70 BP + 5% compound
[6] = format: physicochemical; details: aged bitumen 50/70 BP + 5% compound
[7] = MSCR elastic recovery of rejuvenated aged bitumen; format: physicochemical; details: aged bitumen 50/70 BP + 5% compound
[8] = Softening point of rejuvenated aged bitumen; format: physicochemical; details: aged bitumen 50/70 PCK Schwedt + 5% compound
[9] = format: physicochemical; details: aged bitumen 50/70 PCK Schwedt + 5% compound
[10] = MSCR elastic recovery of rejuvenated aged bitumen; format: physicochemical; details: aged bitumen 50/70 PCK Schwedt + 5% compound
[11] = Softening point of rejuvenated RAP bitumen; format: physicochemical; details: bitumen extracted from RAP + 5% compound
[12] = format: physicochemical; details: bitumen extracted from RAP + 5% compound
[13] = MSCR elastic recovery of rejuvenated RAP bitumen; format: physicochemical; details: bitumen extracted from RAP + 5% compound
[14] = Low temperature performance, bending beam rheometer (BBR) at −16° C.; format: physicochemical
Protocol: (§1) Different bitumen samples were rejuvenated as in Example 1, and the BBR values S (flexural creep stiffness) and m […] were evaluated at −16° C. The results were compared to the not rejuvenated bitumen sample as well as to the bitumen rejuvenated with the benchmark RheoFalt® HP-AM (Comp. 1.3).

[15] = Loss tangent from DSR frequency sweep at 60° C.; format: physicochemical
Description: In addition, it could be shown that additives according to the present invention perform most of the times better than the common benchmarks according to the standard testing techniques for the low, mid and high temperature range. What cannot be extracted from these measurements however is an indication of the working mechanism.

[16] = Softening point of rejuvenated polymer-modified bitumen; format: physicochemical; details: Olexobit 45 + 5% compound
[17] = format: physicochemical; details: Olexobit 45 + 5% compound
[18] = MSCR elastic recovery of rejuvenated polymer-modified bitumen; format: physicochemical; details: Olexobit 45 + 5% compound
[19] = BBR of rejuvenated polymer-modified bitumen; format: physicochemical; details: Olexobit 45 + 5% compound
Protocol: as §1

[20] = Force ductility of rejuvenated polymer-modified bitumen; format: physicochemical; details: Olexobit 45 + 5% compound
Description: (§2) Herewith, it will be shown that the positive effects of the here claimed rejuvenating agents can also be applied to PmB, in this case Olexobit 45. Olexobit 45 was therefore rejuvenated according to the procedure of Example 1.

[21] = Ageing index (RTFOT ageing) of rejuvenated polymer-modified bitumen; format: physicochemical; details: Olexobit 45 + 5% compound; viscosity after ageing divided by viscosity before ageing
Description: as §2

[22] = TD NMR relaxation time measurements (SE-CPMG, multicomponent fitting); format: physicochemical; details: for 1/<1/T2e>: harmonic average relaxation time of the mobile components
Description: TD NMR, also known as NMR relaxometry, is a known NMR technique and relies on measuring the relaxation times of the nuclear spin system instead of frequency-domain spectra. […] Also, sample preparation is much simpler as there are no concerns about sample homogeneity and no solvents are needed.
Like that, a clear distinction between protons in a solid, amorphous and liquid component can be made with good accuracy.
Bitumen 20/30 was rejuvenated with some of the here claimed rejuvenating agents according to example 1. The pure bitumen 20/30 as well as the rejuvenated bitumen 20/30 samples were then analyzed by TD NMR. To do so, all samples were heated up to 80° C. to allow filling of the samples into NMR tubes. After that, TD NMR measurements at 30° C., 80° C. and 140° C. were conducted using the SE-CMPG sequence. This sequence consists of a solid echo combined with a so-called CPMG (Carr-Purcell-Meiboom-Gill) train of subsequent spin echoes with alternating phase and is capable of recording the decay of coherence in the transverse nuclear magnetization over about 5 orders of magnitude in time. Depending on the measurement temperature, the experimental data were then fitted with semi-empirically selected multicomponent models involving several Gaussian and exponential components:
S(t)=[pg1 exp(−(t/T2g1)^2)+pg2 exp(−(t/T2g2)^2)]+pe1 exp(−t/T2e1)[pe2 exp(−t/T2e2)+pe3 exp(−t/T2e3)]
In order to assess the effect of temperature on the molecular mobility of the bitumen, experiments were conducted at temperatures of 30° C., 80° C. and 140° C., and the following models turned out to provide adequate fits of the respective normalized signal decay curves: • two Gaussians and one exponential at 30° C., • two Gaussians and two exponentials at 80° C., • three exponentials at 140° C.
From the fitting, different values can be obtained: • The p values (pg1, pg2, pe1, pe2 and pe3), indicating the signal fraction of the individual component scaled in the range from 0 to 1 • The T2 values (T2g1, T2g2, T2e1, T2e2 and T2e3), indicating the relaxation times that correspond to each of the individual components. The longer the relaxation time, the higher the molecular mobility of the respective component • In addition to the values T2e1, T2e2 and T2e3, we also calculated the average relaxation time of the mobile components, 1/<1/T2e>, for the temperatures at which more than one mobile component exist (80 and 140° C.). 1/<1/T2e> Is calculated as the harmonic average of the relaxation times involved:
[formula] • The type of the component, those being: • g1: the rigid component • g2: the partially mobile component • e1, e2 and e3: mobile components with increasingly high local molecular mobilities
It is believed that the rigid component g1 is directly correlated with the amount of the asphaltene aggregates. The mobile component(s) on the other hand can be attributed to the maltene phase.

[23] = aged bitumen 50/70 BP + 5% compound, lowest frequency
[24] = aged bitumen 50/70 PCK Schwedt + 5% compound, lowest frequency
[25] = bitumen 20/30 + 5% compound, lowest frequency (0.01 rad/s)
[26] = bitumen extracted from RAP + 5% compound, lowest frequency
[27] = aged bitumen 50/70 BP + 5% compound
[28] = 30° C., bitumen 20/30 + additive
[29] = 80° C., bitumen 20/30 + additive
[30] = 140° C., bitumen 20/30 + additive

Compound: CC(COCC1CO1)(COCC1CO1)c1ccccc1 (stereo not drawn) [2-Methyl-2-phenyl-1,3-propandiol bis glycidylether]
MSCR % Rec. (0.1 kPa) [1]: 8%
MSCR % Rec. (1.6 kPa) [1]: 3%
MSCR % Rec. (3.2 kPa) [1]: 1%
η(135° C.) [mPas] [2]: 900 mPas
SP [° C.] (softening point) [3]: 52.0 °C

Compound: CCCCCCCCCCCCc1ccc(S(=O)(=O)O)cc1 [Dodecylbenzene sulfonic acid]
MSCR % Rec. (0.1 kPa) [1]: 27%
MSCR % Rec. (1.6 kPa) [1]: 25%
MSCR % Rec. (3.2 kPa) [1]: 21%
tox (toxicology/eco toxicology) [4]: Harmful
η(135° C.) [mPas] [2]: 2,100 mPas
SP [° C.] (softening point) [3]: 64.0 °C

Compound: CC(C)(COCC1CO1)COCC1CO1 (stereo not drawn) [Neopentylglycol bis glycidylether]
MSCR % Rec. (0.1 kPa) [1]: 11%
MSCR % Rec. (1.6 kPa) [1]: 5%
MSCR % Rec. (3.2 kPa) [1]: 2%
tox (toxicology/eco toxicology) [4]: Irritating
η(135° C.) [mPas] [2]: 1,050 mPas
SP [° C.] (softening point) [3]: 52.0 °C

Compound: CC(C)CCCCCCOC(=O)c1ccccc1C(=O)OCCCCCCC(C)C [Palatinol ® DINP, diisononyl phthalate]
MSCR % Rec. (0.1 kPa) [1]: 9%
MSCR % Rec. (1.6 kPa) [1]: 3%
MSCR % Rec. (3.2 kPa) [1]: 1%
η(135° C.) [mPas] [2]: 950 mPas
SP [° C.] (softening point) [3]: 52.0 °C

Compound: Dodecenyl succinic acid anhydride
η(135° C.) [mPas] [2]: 950 mPas

Now from value to compound:

MSCR % Rec. (0.1 kPa) [1]: 10%
MSCR % Rec. (1.6 kPa) [1]: 4%
MSCR % Rec. (3.2 kPa) [1]: 1%
SP [° C.] [5]: 56.5 °C
η(135° C.) [mPas] [6]: 1,000 mPas
MSCR % Rec. (0.1 kPa) [7]: 14%
MSCR % Rec. (1.6 kPa) [7]: 10%
MSCR % Rec. (3.2 kPa) [7]: 5%
SP [° C.] [8]: 56.0 °C
η(135° C.) [mPas] [9]: 1,000 mPas
MSCR % Rec. (0.1 kPa) [10]: 11%
MSCR % Rec. (1.6 kPa) [10]: 7%
MSCR % Rec. (3.2 kPa) [10]: 3%
SP [° C.] [11]: 59.0 °C
η(135° C.) [mPas] [12]: 1,200 mPas
MSCR % Rec. (0.1 kPa) [13]: 16%
MSCR % Rec. (1.6 kPa) [13]: 12%
MSCR % Rec. (3.2 kPa) [13]: 7%
S-value [MPa] (flexural creep stiffness) ([14]; bitumen 20/30 + 5% compound): 90 MPa
m-value ([14]; bitumen 20/30 + 5% compound): 0.41
tan δ [15, 23]: 35
tan δ [15, 24]: 40
tan δ [15, 25]: 45
tan δ [15, 26]: 25
SP [° C.] [16]: 49.0 °C
η(135° C.) [mPas] [17]: 700 mPas
MSCR % Rec. (0.1 kPa) ([18]; 0.1 kPa): 19%
MSCR % Rec. (1.6 kPa) ([18]; 1.6 kPa): 7%
MSCR % Rec. (3.2 kPa) ([18]; 3.2 kPa): 4%
BBR S-value [MPa] [19]: 80 MPa
BBR m-value [19]: 0.43
Force Ductility Fmax [N] [20]: 12 N
Force Ductility W [J/cm^2] [20]: 1.0 J/cm^2
AI (ageing index) [21]: 2.1
η(135° C.) [mPas] [2]: 950 mPas
SP [° C.] (softening point) [3]: 52.0 °C
Compound: CC(C)CCCCCCOC(=O)C1CCCCC1C(=O)OCCCCCCC(C)C (stereo not drawn) [Hexamoll ® DINCH, diisononyl cyclohexane-1,2-dicarboxylate]

MSCR % Rec. (0.1 kPa) [1]: 4%
MSCR % Rec. (1.6 kPa) [1]: 1%
MSCR % Rec. (3.2 kPa) [1]: 0%
SP [° C.] [5]: 51.0 °C
η(135° C.) [mPas] [6]: 950 mPas
MSCR % Rec. (0.1 kPa) [7]: 5%
MSCR % Rec. (1.6 kPa) [7]: 2%
MSCR % Rec. (3.2 kPa) [7]: 0%
SP [° C.] [8]: 50.0 °C
η(135° C.) [mPas] [9]: 700 mPas
MSCR % Rec. (0.1 kPa) [10]: 5%
MSCR % Rec. (1.6 kPa) [10]: 1%
MSCR % Rec. (3.2 kPa) [10]: 0%
SP [° C.] [11]: 53.0 °C
η(135° C.) [mPas] [12]: 850 mPas
MSCR % Rec. (0.1 kPa) [13]: 7%
MSCR % Rec. (1.6 kPa) [13]: 3%
MSCR % Rec. (3.2 kPa) [13]: 1%
S-value [MPa] (flexural creep stiffness) [14, 27]: 90 MPa
m-value [14, 27]: 0.43
S-value [MPa] (flexural creep stiffness) ([14]; bitumen 20/30 + 5% compound): 90 MPa
m-value ([14]; bitumen 20/30 + 5% compound): 0.44
tan δ [15, 23]: 80
tan δ [15, 24]: 100
tan δ [15, 25]: 80
tan δ [15, 26]: 70
T2e1 [22, 28]: 0.20 ms
T2g1 [22, 28]: 0.016 ms
T2g2 [22, 28]: 0.045 ms
pe1 ([22]; 30° C., mobile component, bitumen 20/30 + additive): 0.44
pg2 ([22]; 30° C., partially mobile component, bitumen 20/30 + additive): 0.17
pg1 ([22]; 30° C., signal fraction of rigid component, bitumen 20/30 + additive): 0.38
T2e1 [22, 29]: 0.50 ms
T2e2 [22, 29]: 2.53 ms
T2g1 [22, 29]: 0.017 ms
T2g2 [22, 29]: 0.054 ms
pe1 [22, 29]: 0.48
pe2 [22, 29]: 0.35
pg1 [22, 29]: 0.09
pg2 [22, 29]: 0.074
1/<1/T2e> ([22]; 80° C.): 0.76 ms
T2e1 [22, 30]: 0.21 ms
T2e2 [22, 30]: 4.76 ms
T2e3 [22, 30]: 25.72 ms
pe1 [22, 30]: 0.18
pe2 [22, 30]: 0.47
pe3 [22, 30]: 0.34
1/<1/T2e> ([22]; 140° C.): 1.0 ms
η(135° C.) [mPas] [2]: 800 mPas
SP [° C.] (softening point) [3]: 47.0 °C
Compound: CCCCCCCCCCCCN1CCCC1=O [N-Dodecyl pyrrolidone]

MSCR % Rec. (0.1 kPa) [1]: 16%
MSCR % Rec. (1.6 kPa) [1]: 10%
MSCR % Rec. (3.2 kPa) [1]: 5%
η(135° C.) [mPas] [2]: 1,000 mPas
SP [° C.] (softening point) [3]: 57.0 °C
Compound: Polyethylenglycol bis glycidylether

Source: patent publication US20230220206A1, “REJUVENATING AGENTS FOR ASPHALT RECYCLING” (BASF SE, priority 2020, published 2023)
